Converted amounts (≈) assume the structure as drawn. Starred links: 1 amine or outer side, 2 acyl side, 3 side chain; linkers in the order of their positions; H or OH if unused. Non-standard residues stand in square brackets, D forms with d. Residues, ends and D or L forms follow the SMILES beside them. X1 = O=C([C@@H]1CN([*:1])C2CCCCC21)[*:2]; Tic = O=C(O)[C@@H]1Cc2ccccc2CN1; βAla = NCCC(=O)O
How the values were obtained:
Assay type in all cases: functional
Burkholderia mallei = assay: Antimicrobial activity against Burkholderia mallei ATCC 23444 after 24 hrs; settings: ATCC 23444, 24 h
Acinetobacter baumannii [1] = assay: Antimicrobial activity against Acinetobacter baumannii ATCC 19606 after 24 hrs; settings: ATCC 19606 = CIP 70.34 = JCM 6841, 24 h
[2] = tested on: Burkholderia pseudomallei; assay: Antimicrobial activity against Burkholderia pseudomallei BURK003(1026b) after 24 hrs
Francisella tularensis = assay: Antimicrobial activity against Francisella tularensis SCHU-S4 after 24 hrs; settings: SCHU-S4, 24 h
Brucella melitensis = assay: Antimicrobial activity against Brucella melitensis 16 M after 24 hrs
Brucella suis = assay: Antimicrobial activity against Brucella suis ATCC 23445 after 24 hrs; settings: ATCC 23445, 24 h
Bacillus anthracis = assay: Antimicrobial activity against Bacillus anthracis Ames after 24 hrs
Staphylococcus aureus = assay: Antimicrobial activity against methicillin-resistant Staphylococcus aureus ATCC 33591 after 24 hrs; settings: ATCC 33591, 24 h
Yersinia pestis = assay: Antimicrobial activity against Yersinia pestis CO92 after 24 hrs; settings: CO92, 24 h
Acinetobacter baumannii [3] = assay: Antimicrobial activity against Acinetobacter baumannii WRAIR after 24 hrs
Brucella abortus = assay: Antimicrobial activity against Brucella abortus 2308 after 24 hrs; settings: Brucella abortus, 2308, 24 h

Structure (SMILES)	MIC (Burkholderia mallei) [µM]	MIC (Acinetobacter baumannii [1]) [µM]	MIC [2] [µM]	MIC (Francisella tularensis) [µM]	MIC (Brucella melitensis) [µM]	MIC (Brucella suis) [µM]	MIC (Bacillus anthracis) [µM]	MIC (Staphylococcus aureus) [µM]	MIC (Yersinia pestis) [µM]	MIC (Acinetobacter baumannii [3]) [µM]	MIC (Brucella abortus) [µM]
CC(C)C[C@H](NC(=O)[C@@H](N)CCCCN)C(=O)N1Cc2ccccc2C[C@H]1C(=O)N1C[C@@H](C(=O)N[C@@H](CCCCN)C(=O)N2Cc3ccccc3C[C@H]2C(=O)N2C[C@@H](C(=O)N[C@@H](Cc3ccccc3)C(=O)N3Cc4ccccc4C[C@H]3C(=O)N3C[C@@H](C(=O)N[C@@H](CCCCN)C(=O)N4Cc5ccccc5C[C@H]4C(=O)N4C[C@@H](C(=O)N[C@@H](Cc5ccccc5)C(=O)N5Cc6ccccc6C[C@H]5C(=O)N5C[C@@H](C(=O)N[C@@H](CCCCN)C(=O)N6Cc7ccccc7C[C@H]6C(=O)N6C[C@@H](C(=O)N[C@@H](CCCCN)C(=O)N[C@@H](CCCCN)C(=O)N[C@@H](CCCCN)C(=O)N[C@@H](CCCCN)C(N)=O)C7CCCCC76)C6CCCCC65)C5CCCCC54)C4CCCCC43)C3CCCCC32)C2CCCCC21 (stereo not given in full) (H-KL[Tic][X1]K[Tic][X1]F[Tic][X1]K[Tic][X1]F[Tic][X1]K[Tic][X1]KKKK-NH2)	150 (≈ 497 µg/mL)	9.3 (≈ 30.8 µg/mL)	150 (≈ 497 µg/mL)	150 (≈ 497 µg/mL)	150 (≈ 497 µg/mL)	150 (≈ 497 µg/mL)	150 (≈ 497 µg/mL)	150 (≈ 497 µg/mL)	150 (≈ 497 µg/mL)	150 (≈ 497 µg/mL)	150 (≈ 497 µg/mL)
CC(=O)N[C@@H](CCCCN)C(=O)N[C@@H](CCCCN)C(=O)N[C@@H](CCCCN)C(=O)N[C@@H](CCCCN)C(=O)NCC(=O)N[C@@H](Cc1ccccc1)C(=O)N1Cc2ccccc2C[C@H]1C(=O)N1C[C@@H](C(=O)NCC(=O)N[C@@H](CCCCN)C(=O)N2Cc3ccccc3C[C@H]2C(=O)N2C[C@@H](C(=O)NCC(=O)N[C@@H](Cc3ccccc3)C(=O)N3Cc4ccccc4C[C@H]3C(=O)N3C[C@@H](C(=O)NCC(=O)N[C@@H](CCCCN)C(=O)N4Cc5ccccc5C[C@H]4C(N)=O)C4CCCCC43)C3CCCCC32)C2CCCCC21 (stereo not given in full) (Ac-KKKKGF[Tic][X1]GK[Tic][X1]GF[Tic][X1]GK[Tic]-NH2)	204 (≈ 498 µg/mL)	12.8 (≈ 31.2 µg/mL)	204 (≈ 498 µg/mL)	51 (≈ 124 µg/mL)	51 (≈ 124 µg/mL)	25.6 (≈ 62.5 µg/mL)	0.4 (≈ 0.976 µg/mL)	102 (≈ 249 µg/mL)	13.1 (≈ 32 µg/mL)	12.8 (≈ 31.2 µg/mL)	51 (≈ 124 µg/mL)
CC1(C)S[C@@H]2[C@H](NC(=O)[C@H](N)c3ccccc3)C(=O)N2[C@H]1C(=O)O [AMPICILLIN]	0.09 (≈ 0.0314 µg/mL)	179 (≈ 62.5 µg/mL)	0.09 (≈ 0.0314 µg/mL)	0.09 (≈ 0.0314 µg/mL)	11 (≈ 3.84 µg/mL)	0.8 (≈ 0.28 µg/mL)	0.4 (≈ 0.14 µg/mL)	93 (≈ 32.5 µg/mL)	0.8 (≈ 0.28 µg/mL)	1430 (≈ 500 µg/mL)	11 (≈ 3.84 µg/mL)
CC(=O)NCC(=O)N[C@@H](Cc1ccccc1)C(=O)N1Cc2ccccc2C[C@H]1C(=O)N1C[C@@H](C(=O)NCC(=O)N[C@@H](CCCCN)C(=O)N2Cc3ccccc3C[C@H]2C(=O)N2C[C@@H](C(=O)NCC(=O)N[C@@H](Cc3ccccc3)C(=O)N3Cc4ccccc4C[C@H]3C(=O)N3C[C@@H](C(=O)NCC(=O)N[C@@H](CCCCN)C(=O)N4Cc5ccccc5C[C@H]4C(=O)NCCC(=O)N[C@@H](CCCCN)C(=O)N[C@@H](CCCCN)C(=O)N[C@@H](CCCCN)C(=O)N[C@@H](CCCCN)C(N)=O)C4CCCCC43)C3CCCCC32)C2CCCCC21 (stereo not given in full) (Ac-GF[Tic][X1]GK[Tic][X1]GF[Tic][X1]GK[Tic][βAla]KKKK-NH2)	199 (≈ 500 µg/mL)	6.2 (≈ 15.6 µg/mL)	199 (≈ 500 µg/mL)	199 (≈ 500 µg/mL)	199 (≈ 500 µg/mL)	199 (≈ 500 µg/mL)	12.4 (≈ 31.2 µg/mL)	199 (≈ 500 µg/mL)	199 (≈ 500 µg/mL)	6.2 (≈ 15.6 µg/mL)	199 (≈ 500 µg/mL)
CC(=O)NCC(=O)N[C@@H](Cc1ccccc1)C(=O)N1Cc2ccccc2C[C@H]1C(=O)N1C[C@@H](C(=O)NCC(=O)N[C@@H](CCCCN)C(=O)N2Cc3ccccc3C[C@H]2C(=O)N2C[C@@H](C(=O)NCC(=O)N[C@@H](Cc3ccccc3)C(=O)N3Cc4ccccc4C[C@H]3C(=O)N3C[C@@H](C(=O)NCC(=O)N[C@@H](CCCCN)C(=O)N4Cc5ccccc5C[C@H]4C(=O)N[C@@H](CCCCN)C(=O)N[C@@H](CCCCN)C(=O)N[C@@H](CCCCN)C(N)=O)C4CCCCC43)C3CCCCC32)C2CCCCC21 (stereo not given in full) (Ac-GF[Tic][X1]GK[Tic][X1]GF[Tic][X1]GK[Tic]KKK-NH2)	0.02 (≈ 0.0463 µg/mL)	6.7 (≈ 15.5 µg/mL)	0.02 (≈ 0.0463 µg/mL)	0.02 (≈ 0.0463 µg/mL)	54 (≈ 125 µg/mL)	> 216	27 (≈ 62.4 µg/mL)	54 (≈ 125 µg/mL)	27 (≈ 62.4 µg/mL)	3.4 (≈ 7.86 µg/mL)	27 (≈ 62.4 µg/mL)

Reference: ChEMBL document CHEMBL1255229, “Novel antimicrobial peptides that exhibit activity against select agents and other drug resistant bacteria” (2010)
